{
  "source": "paper PMC10938764",
  "about": "(Journal of Nanobiotechnology, 2024)",
  "key": {"IAPs in CT26 cells": {"tested_on": "IAPs in CT26 cells", "assay": "Intracellular IAPs expression by western blot", "assay_type": "cell-based, mouse", "conditions": "48 h"}, "[1]": {"tested_on": "CT26 colon tumor-bearing mice", "assay": "In vivo antitumor efficacy", "description": "(§2) Antitumor efficacy was assessed by measuring tumor volumes that are calculated as the largest diameter × the smallest diameter^2 × 0.53. To analyze the increase of tumor-infiltrating lymphocytes by antitumor immune response, tumor tissues were collected from mice on day 13 after treatment, and single cells were isolated from tumor tissues using a tumor dissociation kit. Following single cell counting, the cells were incubated with FcBlock for 10 min to avoid non-specific antibody binding. Then, multi-parameter staining was performed at 4 °C for 50 min to identify the following populations within the tumor tissues: (i) CRT-positive cancer cells (CD45^−CRT^+), (ii) mature DCs (CD11c^+CD40^+CD86^+), (iii) cytotoxic T cells (CD45^+CD3^+CD8^+) and (iv) regulatory T lymphocytes (Tregs; CD45^+CD3^+CD4^+CD25^+)."}, "[2]": {"tested_on": "CT26 cells co-cultured with bone marrow-derived macrophages (BMDMs)", "assay": "Co-culture assay: phagocytosis of treated CT26 cells by BMDMs", "conditions": "CT26 treated 2 µM (DOX contents) 48 h, pHrodo labeled; co-cultured 2 h with BMDMs; confocal imaging", "description": "For these analyses, bone marrow cells were collected from 5-week-old male BALB/C mice and cultured with differentiation media containing M-CSF (20 ng/mL) for 7 days, followed by labeling with CellTracker Green. […] Then, both cells were co-cultured at 37 C for 2 h, and the phagocytosis of cancer cells was observed using a CLSM."}, "CT26 cells": {"tested_on": "CT26 cells", "assay": "Cellular uptake and nuclear localization of DOX fluorescence (confocal)", "conditions": "both naive or Z-FA-FMK-treated CT26 cells; 2 µM, 48 h", "description": "The cells were then washed with DPBS, fixed with 4% paraformaldehyde for 10 min, and stained with 4ʹ,6-diamidino-2-phenylindole (DAPI) for 5 min. […] The cellular uptake of each drug in different cell lines were quantified using flow cytometer (CytoFLEX, BECKMAN COULTER, USA)."}, "[3]": {"tested_on": "CT26 colon tumor-bearing mice", "description": "as §2"}, "CT26 tumor tissues": {"tested_on": "CT26 tumor tissues", "assay": "Antitumor immune response in tumor tissues (flow cytometry)", "assay_type": "in vivo, mice", "conditions": "day 13 after treatment, 3 mg/kg DOX dose once every three days", "description": "as §2"}, "[4]": {"tested_on": "cancer, normal and immune cells (CT26, 4T1, H9C2, HDF, M0 and M1 macrophages, DCs, T cells)", "assay": "Cytotoxicity study (CCK-8), all cell types", "conditions": "read-out: IC50 values in all the cell types (span); CCK-8, 48 h, concentrations based on DOX contents", "description": "Briefly, 5 × 10^3 cells were seeded in 96-well cell culture plates and cultured at 37 C for 24 h. […] Finally, 20 μl Cell Counting Kit-8 (CCK-8) solution was added and then further incubated for 20 min. The cell viability was measured using a UV/Vis microplate reader."}, "[5]": {"assay": "Drug release profile from dialysis membranes", "assay_type": "physicochemical", "conditions": "very fast release"}, "[6]": {"assay": "Size distribution and zeta potential by zeta-sizer (DLS)", "assay_type": "physicochemical", "conditions": "Zetasizer, 1 mg/ml; saline or D.W (Figure S3)"}, "[7]": {"assay": "Particle stability (particle size over time) in saline, mouse plasma or serum", "assay_type": "physicochemical", "experimental": "The inset pictures indicate representative images of Aposomes in mouse serum conditions. g Release profiles of free DOX, DOXIL and Aposomes. […] As a control, SMAC-P-FRRG-DOX in MES buffer in the absence of cathepsin B was analyzed using an HPLC system."}, "caspase-3": {"tested_on": "caspase-3", "conditions": "cited from earlier work", "from_the_text": "(§1) First, the cathepsin B-cleavable SMAC-P, SMAC-P-FRRG ([…]), was conjugated to a DOX through one-step EDC/NHS reaction, resulting in SMAC-P-FRRG-DOX (Fig. 1a and Additional file 1: Figure S1)."}, "cathepsin L": {"tested_on": "cathepsin L", "conditions": "cited from earlier work", "from_the_text": "as §1"}, "MMP-9": {"tested_on": "MMP-9", "conditions": "cited from earlier work", "from_the_text": "as §1"}, "cathepsin E": {"tested_on": "cathepsin E", "conditions": "cited from earlier work", "from_the_text": "as §1"}, "cathepsin D": {"tested_on": "cathepsin D", "conditions": "cited from earlier work", "from_the_text": "as §1"}, "IAPs": {"tested_on": "IAPs", "conditions": "cited from earlier work", "from_the_text": "as §1"}},
  "note": "Ends that are not written are not given here.",
  "data": [
    {"compound": "COc1cccc2c1C(=O)c1c(O)c3c(c(O)c1C2=O)C[C@@](O)(C(=O)CO)C[C@@H]3O[C@H]1C[C@H](N)[C@H](O)[C@H](C)O1.Cl", "note": "[free DOX, Doxorubicin hydrochloride]", "values": [
      {"measurement": "intracellular IAPs expression levels", "setting": "IAPs in CT26 cells", "result": "significantly upregulated"},
      {"measurement": "median survival / survival of mice", "setting": "[1]; 3 mg/kg DOX dose once every three days", "result": 14, "unit": "days"},
      {"measurement": "tumor volume on day 14", "setting": "[1]; i.v. 3 mg/kg DOX dose once every three days, n = 5, mean ± SD", "result": "556.2 ± 149.82", "unit": "mm^3"},
      {"measurement": "phagocytosis of CT26 cells by BMDMs", "setting": "[2]", "result": "2.1 ± 0.21", "unit": "%"},
      {"measurement": "free DOX fluorescence detected in the nuclei", "setting": "CT26 cells", "result": "more than 90%"},
      {"measurement": "mice died within 13 days", "setting": "[3]; 3 mg/kg DOX dose i.v. once every three days", "result": "4 out of 5"},
      {"measurement": "body weight loss and tissue damage in major organs", "setting": "[3]; 3 mg/kg DOX dose once every three days, H and E of major organs", "result": "significant body weight loss along with extensive tissue damages"},
      {"measurement": "percentage of CRT-positive tumor cells (CD45−CRT+) within the tumor tissues", "setting": "CT26 tumor tissues", "result": "57.67 ± 0.91", "unit": "%"},
      {"measurement": "IC50", "setting": "[4]", "result": "3 to 380", "unit": "nM"},
      {"measurement": "time of release from dialysis membranes", "setting": "[5]", "result": "≤ 6", "unit": "h"}
    ]},
    {"compound": "AVPIAQFRRG [SMAC-P-FRRG-DOX, prodrug of SMAC mimetic peptide (AVPIAQ), cathepsin B-cleavable peptide (FRRG) and doxorubicin]", "values": [
      {"measurement": "zeta potential", "setting": "[6]", "result": "14.9 ± 0.814", "unit": "mV"},
      {"measurement": "particle stability in mouse plasma", "setting": "[7]; mouse plasma, 1 mg/ml, up to 5 days, particle size", "result": "remarkable aggregation after 2 days"},
      {"measurement": "particle stability in mouse serum", "setting": "[7]; mouse serum, as worded in Conclusions", "result": "significant aggregation from 48 h"},
      {"measurement": "cleavage by caspase-3", "setting": "caspase-3", "result": "not cleaved"},
      {"measurement": "cleavage by cathepsin L", "setting": "cathepsin L", "result": "not cleaved"},
      {"measurement": "cleavage by MMP-9", "setting": "MMP-9", "result": "not cleaved"},
      {"measurement": "cleavage by cathepsin E", "setting": "cathepsin E", "result": "not cleaved"},
      {"measurement": "cleavage by cathepsin D", "setting": "cathepsin D", "result": "not cleaved"}
    ]},
    {"compound": "AVPIAQ", "values": [
      {"measurement": "IAP antagonism compared to AVPIAQK, AVPIA and AVPI", "setting": "IAPs", "result": "potent activity for IAP antagonism compared to other sequences"}
    ]},
    {"compound": "AVPIAQFR [peptide released from SMAC-P-FRRG-DOX by cathepsin B]", "values": [
      {"measurement": "IAPs antagonism activity of cathepsin B cleavage product", "setting": "IAPs", "result": "comparable IAPs antagonism activity to AVPIAQ"}
    ]}
  ]
}
